Reference: patent US9125866B1, “Antidepressant compounds” (KING SAUD UNIVERSITY, priority 2015, dated 2015)

System: mice subjected to the forced swim test
Assay: Forced swim test on mice (duration of immobility)
Assay type: in vivo, Swiss white mice
Conditions: for Duration of immobility in seconds during the last four minutes of the six minute period: 20 minutes before test, N=4; for Activity in reducing immobility time compared with control (in words): 40 mg/Kg; for Percentage decrease in immobility times for dosage of 40 mg/kg: 40 mg/kg i.p.; for Percentage decrease in immobility times for dosage of 40 mg/kg / Percentage decrease in immobility times for dosage of 80 mg/kg: versus control; for Percentage decrease in immobility times for dosage of 80 mg/kg: 80 mg/kg i.p.
Source text: The antidepressant compounds can be used to treat depression. […] As exemplified in such technical articles as I Weiner et al., “A comparison of drug effects in latent inhibition and the forced swim test differentiates between the typical antipsychotic haloperidol, the atypical antipsychotics clozapine and olanzapine, and the antidepressants imipramine and paroxetine”, Behavioural Pharmacology (2003), Vol. 14, pp. 215-22, and D. A. Slattery et al., “Using the rat forced swim test to assess antidepressant-like activity in rodents”, Nature Protocols (2012), Vol. 7, pp. 1009-1014, the forced swim test is recognized in the pharmacological art as a standard test protocol for assessing antidepressant-like behavior induced by antidepressant compounds. The forced swimming test measures the duration of immobility of rodents exposed to the threat of drowning. Mice normally swim for 1-2 minutes and then turn helpless and become immobile. […] For example, the mouse may appear to float, i.e. almost immobile and with its head above water. The majority of known antidepressant drugs decrease the duration of immobility.
To test for the presence of anti-depressant activity of the test compounds 3, 4, 5 and 6, the forced swim test was conducted on mice. The forced swimming test was conducted generally in accordance with the procedures set forth in David, D. J. P. et al., Psychopharmacology (2003), 166, 373-382, with the exception of a slight modification in the dimensions of the vessel used as a swimming pool. The vessel was a glass cylinder having an internal diameter of 25 cm and included water having a depth of 15 cm and a temperature of about 22±2° C. Swiss white mice weighing 25 g each were divided into 17 groups (N=4). One group served as control and the others divided for each test compound.
The test compounds were dissolved in DMSO and administered in 4 dose levels of 10, 20, 40, 80 mg/kg, respectively, intraperitoneally (“i.p.”). The antidepressant compounds were administered to the mice 20 minutes before starting the swimming test. The control group was administered the vehicle only, in the same volume. Each mouse was allowed to stay in the swimming pool for 6 minutes. The duration of the period of immobility was measured at the beginning of the third minute of placing the mouse into the swimming pool and ended by the end of the sixth minute. In other words, the duration of immobility observed only during the last four minutes was recorded. For each test compound dose, the time of immobility was calculated and then averaged.

[1] = 40 mg/kg i.p. in DMSO, * P<0.05 compared with control
[2] = 80 mg/kg i.p. in DMSO, * P<0.05 compared with control

| Structure (SMILES) | Duration of immobility in seconds during the last four minutes of the six minute period (10 mg/kg i.p. in DMSO) | Duration of immobility in seconds during the last four minutes of the six minute period (20 mg/kg i.p. in DMSO) | Activity in reducing immobility time compared with control (in words) (p<0.05, N=4) | Duration of immobility in seconds during the last four minutes of the six minute period [1] | Percentage decrease in immobility times for dosage of 40 mg/kg | Immobility time compared with the control (in words) (80 mg/kg dosage, p<0.05, N=4) | Duration of immobility in seconds during the last four minutes of the six minute period [2] | Percentage decrease in immobility times for dosage of 80 mg/kg | Activity compared with compound 3 (in words) (80 mg/kg dosage, p<0.05, N=4) | Activity in the forced swim test (in words) (all doses tested (10, 20, 40, 80 mg/kg i.p.)) |
| --- | --- | --- | --- | --- | --- | --- | --- | --- | --- | --- |
| O=CC1CC2c3cccc(Cl)c3C1c1c(Cl)cccc12 (stereo not shown) [Compound 3, 4,5-dichloro-9,10-dihydro-9,10-ethanoanthracene-11-carbaldehyde] | 240 s | 240 s | significantly active in reducing immobility time | 160 ± 11* seconds | 28.9% | significant decrease in immobility time | 65 ± 4* seconds | 71.1% |  |  |
| CNCC1CC2c3cccc(Cl)c3C1c1c(Cl)cccc12 (stereo not shown) [Compound 5] | 240 s | 200 ± 12.3 s | significantly active in reducing immobility time | 140 ± 7.9* seconds | 37.8% | significant decrease in immobility time | 36 ± 4.9* seconds | 84.0% | significantly more active than compound 3 |  |
| O=CC1CC2c3c(Cl)cccc3C1c1cccc(Cl)c12 (stereo not shown) [Compound 4, 1,8-dichloro-9,10-dihydro-9,10-ethanoanthracene-11-carbaldehyde] | 240 s | 240 s |  | 240 s |  |  | 240 s |  |  | completely inactive |
